Experimental data published in US6838415B1, “Substituted benzoylisoxazoles and the use thereof as herbicides” (Bayer Aktiengesellschaft, priority 1999, dated 2005).

Tests used:
[1] = logP by HPLC on reverse-phase column (C 18), acidic range; format: physicochemical; details: for logP a): acidic range: 0.1% aqueous phosphoric acid/acetonitrile gradient, HPLC C 18, 43° C.; for logP: HPLC reverse-phase column (C 18), 43° C., acidic range: 0.1% aqueous phosphoric acid, acetonitrile; data labelled a)
Method: (§1) The logP values given in Table 1 were determined in accordance with EE Directive 79/831 Annex V.A8 by HPLC (High Performance Liquid Chromatography) using a reverse-phase column (C 18). Temperature: 43° C. (a) Mobile phases for the determination in the acidic range: 0.1% aqueous phosphoric acid, acetonitrile; linear gradient from 10% acetonitrile to 90% acetonitrile—the corresponding data in Table 1 are labelled ^a). Calibration was carried out using unbranched alkan-2-ones (with from 3 to 16 carbon atoms) whose logP values are known (determination of the logP values by the retention times using linear interpolation between two successive alkanones). The logP values given in Table 3 were determined in accordance with EEC Directive 79/831 Annex V.A8 by HPLC (High Performance Liquid Chromatography) using a reverse-phase column (C 18). Temperature: 43° C. (a) Mobile phases for the determination in the acidic range: 0.1% aqueous phosphoric acid, acetonitrile; linear gradient from 10% acetonitrile to 90% acetonitrile—the corresponding data in Table 3 are labelled ^a). Calibration was carried out using unbranched alkan-2-ones (with from 3 to 16 carbon atoms) whose logP values are known (determination of the logP values by the retention times using linear interpolation between two successive alkanones).

weeds [2] = assay: Pre-emergence test, action against weeds; format: in vivo; details: soil sprayed about 24 hours after sowing, rated after three weeks
Method: (§2) Pre-emergence Test [table] To produce a suitable preparation of active compound, 1 part by weight of active compound is mixed with the stated amount of solvent, the stated amount of emulsifier is added and the concentrate is diluted with water to the desired concentration. Seeds of the test plants are sown in normal soil. After about 24 hours, the soil is sprayed with the preparation of active compound such that the particular amount of active compound desired is applied per unit area. The concentration of the spray liquor is chosen so that the particular amount of active compound desired is applied in 1000 liters of water per hectare. After three weeks, the degree of damage to the plants is rated in % damage in comparison to the development of the untreated control. The figures denote: [table]

[3] = tested on: crop plants, such as, for example, wheat; assay: Post-emergence test, tolerance by crop plants; format: in vivo; details: rated after three weeks
Method: (§3) Post-emergence Test [table] To produce a suitable preparation of active compound, 1 part by weight of active compound is mixed with the stated amount of solvent, the stated amount of emulsifier is added and the concentrate is diluted with water to the desired concentration. Test plants which have a height of 5-15 cm are sprayed with the preparation of active compound such that the particular amounts of active compound desired are applied per unit area. The concentration of the spray liquor is chosen so that the particular amounts of active compound desired are applied in 1000 l of water/ha After three weeks, the degree of damage to the plants is rated in % damage in comparison to the development of the untreated control. The figures denote: [table]

[4] = tested on: crop plants, such as, for example, maize; assay: Pre-emergence test, tolerance by crop plants; format: in vivo; details: rated after three weeks
Method: as §2

weeds [5] = assay: Post-emergence test, activity against weeds; format: in vivo; details: test plants 5-15 cm sprayed, rated after three weeks
Method: as §3

[6] = logP by HPLC on reverse-phase column (C 18), neutral range; format: physicochemical; details: neutral range: 0.01 molar aqueous phosphate buffer/acetonitrile gradient, HPLC C 18, 43° C.
Method: as §1, with “(b)” for “(a)”, “neutral” for “acidic”, “0.01 molar” for “0.1%”, “phosphate buffer solution,” for “phosphoric acid,”, “^b).” for “^a).”

COC(=O)c1noc(C2CC2)c1C(=O)c1ccc(Br)cc1Cn1nc(C(F)(F)F)n(C)c1=O [Example 5]
logP a) [1]: (IA) logP = 3.50^a)

CSc1nn(Cc2cc(C(F)(F)F)ccc2C(=O)c2cnoc2C2CC2)c(=O)n1C [Example 2, (5-cyclopropyl-isoxazol-4-yl)-[2-(4-methyl-3-methylthio-5-oxo-4,5-dihydro-[1,2,4]-triazol-1-yl-methyl)-4-trifluoromethyl-phenyl]-methanone]
chromatographic logP ([1]; reverse-phase HPLC column (C 18), pH=2.3, read-out: logP (determined at pH=2.3)): 2.94

COC(=O)c1ccc(C(F)(F)F)cc1CN1C(=O)c2ccccc2S1(=O)=O [VII-122]
logP [1]: logP = 3.29^a)

CCOc1nn(Cc2cc(Br)ccc2C(=O)c2c(C(=O)OC)noc2C2CC2)c(=O)n1C [Example 3]
action against weeds (degree of damage) (weeds [2]): strong action against weeds
tolerance by crop plants [3]: tolerated well
logP a) [1]: (IA) logP = 3.15^a)
tolerance by crop plants [4]: tolerated well
activity against weeds (degree of damage) (weeds [5]): very strong activity against weeds

CCOC(=O)c1ccc(C(F)(F)F)cc1Cn1nc(OC)n(C2CC2)c1=O [VII-91]
logP [1]: logP = 3.08^a)

COC(=O)c1ccc(C(F)(F)F)cc1Cn1c(=O)oc2ccccc21 [VII-121]
logP [1]: logP = 3.37^a)

CCOc1nn(Cc2cc(C(F)(F)F)ccc2C(=O)c2c(C(=O)OC)noc2C2CC2)c(=O)n1C [Example 6]
logP a) [1]: (IA) logP = 3.32^a)

CN1CCN(Cc2c(Cl)ccc(C(=O)c3cnoc3C3CC3)c2Cl)C1=O [ID-1]
logP a) [1]: logP = 2.48^a)

COC(=O)c1ccc(C(F)(F)F)cc1Cn1nnc2ccccc2c1=O [VII-123]
logP [1]: logP = 3.26^a)

COc1c(C(=O)c2cnoc2C2CC2)ccc(Cl)c1CN1CCN(C)C1=O [ID-2]
logP a) [1]: logP = 2.46^a)

COC(=O)c1noc(C2CC2)c1C(=O)c1ccc(C(F)(F)F)cc1Cn1nc(SC)n(C)c1=O [Example 7]
logP a) [1]: (IA) logP = 3.22^a)

CCOn1c(CC)nn(Cc2cc(Br)ccc2C(=O)c2c(C(=O)OC)noc2C2CC2)c1=O [Example 4]
action against weeds (degree of damage) (weeds [2]): strong action against weeds
tolerance by crop plants [3]: tolerated well
logP b) [6]: (IA) logP = 3.36^b)
tolerance by crop plants [4]: tolerated well
activity against weeds (degree of damage) (weeds [5]): very strong activity against weeds
